Legend:
[1] = system: yellow nutsedge; assay: Test C pre-/postemergence test; type: in vivo, Cyperus esculentus
Method in brief: (§1)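 Compounds in a non-phytotoxic solvent with surfactant applied preemergence to seeded pots and, at the same time, postemergence to plants 2–18 cm tall (1- to 4-leaf stage). Paddy tests: pots flooded to 3 cm, compound applied into the water, depth held throughout.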

[2] = system: soybean; assay: Test C pre-/postemergence test; type: in vivo, Glycine max
Method in brief: as §1

[3] = system: blackgrass; assay: Test C pre-/postemergence test; type: in vivo, Alopecurus myosuroides
Method in brief: as §1

[4] = system: woolly cupgrass; assay: Test C pre-/postemergence test; type: in vivo, Eriochloa villosa
Method in brief: as §1

[5] = system: green foxtail; assay: Test C pre-/postemergence test; type: in vivo, Setaria viridis
Method in brief: as §1

[6] = system: bermudagrass; assay: Test C pre-/postemergence test; type: in vivo, Cynodon dactylon
Method in brief: as §1

[7] = system: cocklebur; assay: Test C pre-/postemergence test; type: in vivo, Xanthium strumarium
Method in brief: as §1

[8] = system: rice; assay: Test C flooded paddy test; type: in vivo, Oryza sativa; settings: Flood
Method in brief: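 Pots were flooded to 3 cm above the soil surface at treatment, compound applied directly to the paddy water, and that depth held throughout. Plants were kept in a greenhouse for 13 to 15 days, then visually rated against untreated controls.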

[9] = system: catchweed bedstraw; assay: Test C pre-/postemergence test; type: in vivo, Galium aparine
Description: Seeds of plant species selected from blackgrass (Alopecurus myosuroides), downy brome (Bromus tectorum), green foxtail (Setaria viridis), Italian ryegrass (Lolium multiflorum), wheat (Triticum aestivum), wild oat (Avena fatua), catchweed bedstraw (Galium aparine), Russian thistle (Salsola kali), […] (Cynodon dactylon), Surinam grass (Brachiaria decumbens), cocklebur (Xanthium strumarium), corn (Zea mays), crabgrass (Digitaria sanguinalis), woolly cupgrass (Eriochloa villosa), giant foxtail (Setaria faberii), Goosegrass (Eleusin indica), johnsongrass (Sorghum halepense), kochia (Kochia scoparia), lambsquarters (Chenopodium album), morningglory (Ipomoea coccinea), eastern black nightshade (Solanum ptycanthum), yellow nutsedge (Cyperus esculentus), pigweed (Amaranthus retroflexus), common ragweed (Ambrosia elation), soybean (Glycine max), common (oilseed) sunflower (Helianthus annuus), and velvetleaf (Abutilon theophrasti) were planted and treated preemergence with test chemicals formulated in a non-phytotoxic solvent mixture which included a surfactant. At the same time, plants selected from these crop and weed species and also winter barley (Hordeum vulgare), canarygrass (Phalaris minor), and chickweed (Stellaria media) were treated with postemergence applications of some of the test chemicals formulated in the same manner. Plants ranged in height from 2 to 18 cm (1- to 4-leaf stage) for postemergence treatments. […] At time of treatment, test pots were flooded to 3 cm above the soil surface, treated by application of test compounds directly to the paddy water, and then maintained at that water depth for the duration of the test. […] A dash (-) response means no test result.

[10] = system: downy brome; assay: Test C pre-/postemergence test; type: in vivo, Bromus tectorum
Method in brief: as §1

[11] = system: lambsquarters; assay: Test C pre-/postemergence test; type: in vivo, Chenopodium album
Method in brief: as §1

[12] = system: wild oat; assay: Test C pre-/postemergence test; type: in vivo, Avena fatua
Method in brief: as §1

[13] = system: redroot pigweed; assay: Test A pre-/postemergence greenhouse test; type: in vivo, Amaranthus retroflexus; settings: for Pigweed plant response rating: 0 to 100 scale
Method in brief: (§2)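 Greenhouse herbicide screen, pre- and postemergence in parallel. Soil: loam plus sand. Formulation: non-phytotoxic solvent mix with surfactant. Postemergence stage: one to two leaves, 2–10 cm height. Evaluation: visual injury, compared with untreated controls, about 10 days after treatment.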

[14] = system: morningglory; assay: Test A pre-/postemergence greenhouse test; type: in vivo, Ipomoea spp.; settings: for Morningglory plant response rating: 0 to 100 scale
Method in brief: as §2

[15] = system: kochia; assay: Test C pre-/postemergence test; type: in vivo, Kochia scoparia
Method in brief: as §1

[16] = 31 g ai/ha, Preemergence, scale 0 to 100
[17] = 62 g ai/ha, preemergence, scale 0 (no effect) to 100 (complete control)
[18] = preemergence, 125 g ai/ha, scale 0 (no effect) to 100 (complete control)
[19] = Postemergence, 125 g ai/ha, 0 is no effect, 100 is complete control
[20] = Postemergence, 500 g ai/ha, 0 is no effect, 100 is complete control
[21] = Preemergence, 125 g ai/ha, 0 no effect, 100 complete control
[22] = Preemergence, 500 g ai/ha, 0 to 100 scale where 0 is no effect and 100 is complete control

`Cn1nc(C(F)(F)F)c(CS(=O)(=O)c2cccc[n+]2[O-])c1OC(F)F` [Compound 4] was tested, and the “Nutsedge, Yellow plant response rating” value [1, 16] was 85, the “Nutsedge, Yellow plant response rating” value [1, 17] was 100 and the “Plant response rating (0 to 100), Nutsedge, Yellow” value ([1]; Preemergence, 250 g ai/ha) was 100. The “Nutsedge, Yellow plant response rating” value [1, 18] was 100, the “Soybean plant response rating” value [2, 16] was 0 and the “Soybean plant response rating” value [2, 18] was 0. For the same compound, the “Blackgrass plant response rating” value [3, 16] was 70, the “Blackgrass plant response rating” value [3, 17] was 80 and the “Plant response rating (0 to 100), Blackgrass” value ([3]; Preemergence, 250 g ai/ha) was 100. The “Blackgrass plant response rating” value [3, 18] was 95, the “Cupgrass, Woolly plant response rating” value [4, 16] was 60 and the “Cupgrass, Woolly plant response rating” value [4, 17] was 98. The “Plant response rating (0 to 100), Cupgrass, Woolly” value ([4]; Preemergence, 250 g ai/ha) was 100, the “Cupgrass, Woolly plant response rating” value [4, 18] was 98 and the “Foxtail, Green plant response rating” value [5, 16] was 100. For the same compound, the “Foxtail, Green plant response rating” value [5, 17] was 100, the “Plant response rating (0 to 100), Foxtail, Green” value ([5]; Preemergence, 250 g ai/ha) was 100 and the “Foxtail, Green plant response rating” value [5, 18] was 100. For the same compound, the “Bermudagrass plant response rating” value [6, 16] was 100, the “Bermudagrass plant response rating” value [6, 17] was 100 and the “Plant response rating (0 to 100), Bermudagrass” value ([6]; Preemergence, 250 g ai/ha) was 100. For the same compound, the “Bermudagrass plant response rating” value [6, 18] was 100, the “Cocklebur plant response rating” value [7, 16] was 0 and the “Cocklebur plant response rating” value [7, 17] was 0. The “Plant response rating (0 to 100), Cocklebur” value ([7]; Preemergence, 250 g ai/ha) was 0, the “Cocklebur plant response rating” value [7, 18] was 0 and the “Plant response rating, Rice” value ([8]; 31 g ai/ha, scale 0 to 100 (0 no effect, 100 complete control)) was 10. For the same compound, the “Plant response rating, Rice” value ([8]; 62 g ai/ha, scale 0 to 100, 0 no effect, 100 complete control, 13 to 15 days) was 30, the “Plant response rating, Rice” value ([8]; 125 g ai/ha, scale 0 to 100, 0 no effect, 100 complete control, 13 to 15 days) was 70 and the “Plant response rating, Rice” value ([8]; 250 g ai/ha, scale 0 to 100 (0 no effect, 100 complete control)) was 80. The “Galium plant response rating” value [9, 16] was 70, the “Galium plant response rating” value [9, 17] was 90 and the “Plant response rating (0 to 100), Galium” value ([9]; Preemergence, 250 g ai/ha) was 100. For the same compound, the “Galium plant response rating” value [9, 18] was 100, the “Bromegrass, Downy plant response rating” value [10, 16] was 0 and the “Bromegrass, Downy plant response rating” value [10, 17] was 0. The “Plant response rating (0 to 100), Bromegrass, Downy” value ([10]; Preemergence, 250 g ai/ha) was 70, the “Bromegrass, Downy plant response rating” value [10, 18] was 0 and the “Lambsquarters plant response rating” value [11, 16] was 0. For the same compound, the “Lambsquarters plant response rating” value [11, 17] was 50, the “Plant response rating (0 to 100), Lambsquarters” value ([11]; Preemergence, 250 g ai/ha) was 100 and the “Lambsquarters plant response rating” value [11, 18] was 80. For the same compound, the “Oat, Wild plant response rating” value [12, 16] was 10, the “Oat, Wild plant response rating” value [12, 17] was 50 and the “Plant response rating (0 to 100), Oat, Wild” value ([12]; Preemergence, 250 g ai/ha) was 70. For the same compound, the “Oat, Wild plant response rating” value [12, 18] was 65, the “Pigweed plant response rating” value [13, 19] was 70 and the “Pigweed plant response rating” value [13, 20] was 80. The “Pigweed plant response rating” value [13, 21] was 100, the “Plant response rating, Pigweed” value [13, 22] was 100 and the “Morningglory plant response rating” value [14, 19] was 60. The “Morningglory plant response rating” value [14, 20] was 70, the “Morningglory plant response rating” value [14, 21] was 80 and the “Plant response rating, Morningglory” value [14, 22] was 90. For the same compound, the “Kochia plant response rating” value [15, 16] was 0, the “Kochia plant response rating” value [15, 17] was 100 and the “Plant response rating (0 to 100), Kochia” value ([15]; Preemergence, 250 g ai/ha) was 100. For the same compound, the “Kochia plant response rating” value [15, 18] was 100.
